Experimental findings from US12083101B2, “Biaryl derivatives as YAP/TAZ-TEAD protein-protein interaction inhibitors” (Novartis AG, priority 2020, dated 2024) are described below.

Test [1] deals with MKN-45/Ubc-luc cells. In words: Proliferation assay (resazurin), MKN-45. In kind it is cell-based. The following applies: Homo sapiens, 72 hours incubation. For orientation: Resazurin is reduced to fluorescent resorufin, in cell work by metabolically active cells.
The subject of test [2] is NCI-H2052 Tet-On shYAP_2371 pLenti6 MCAT_Luc cells. Put plainly: Proliferation assay (resazurin), NCI-H2052. It is filed as cell-based. The following applies: Homo sapiens, NCI-H2052, 72 h, 72 hours incubation. Summed up:
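The NCI-H2052 line carries a Tet-inducible shRNA against the YAP1 3′UTR and an MCAT luciferase reporter. The day after seeding, it received eleven 2-fold compound dilutions at 0.1% DMSO, and viability was read by resazurin fluorescence.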

The test system of test [3] is NCI-H2052 Tet-On shYAP_2371 pLenti6 MCAT_Luc cells (YAP-dependent transcription). Put plainly: YAP reporter gene activity assay (MCAT-luciferase), NCI-H2052. It is filed as cell-based. As to conditions: Homo sapiens, NCI-H2052, 24 h, 24 hours incubation, BrightGlo luminescence. Put shortly: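 Luminescence was read 5 min after BrightGlo, following 24 h at 37 °C of compound exposure (eleven 2-fold dilutions, DMSO normalized to 0.1%). Cells were NCI-H2052 with a YAP-responsive MCAT-luciferase and a Tet-inducible shRNA against YAP1 3′UTR. Cell-free background was removed, values were normalized to vehicle, and IC50 was fitted with four parameters.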

The test system of test [4] is MKN-45/Ubc-luc cells. In words: Reporter gene specificity control (Ubc-luciferase), MKN-45. As to conditions: Homo sapiens, MKN-45, 24 h, read-out: Reporter gene assay MKN-45 IC50 [μM], MKN-45/Ubc-luc cells (YAP deleted, specificity control), 24 hours incubation. (In a reporter assay the amount or activity of a reporter protein is the signal.)
Test [5] addresses Avi-humanTEAD4 217-434 / Cy5 labeled humanYAP 60-100 (Homo sapiens (Human), UniProt Q15561). In words: TR-FRET YAP-TEAD4 in-vitro biochemical assay. In kind it is binding. The following applies: 1 nM Avi-humanTEAD4 217-434, 20 nM Cy5-humanYAP 60-100, 1 h room temperature. (TR-FRET usually uses a lanthanide donor and a delayed reading to cut background.)

Avi-humanTEAD4 217-434 / Cy5 labeled humanYAP 60-100, sequence (Q15561 217-434): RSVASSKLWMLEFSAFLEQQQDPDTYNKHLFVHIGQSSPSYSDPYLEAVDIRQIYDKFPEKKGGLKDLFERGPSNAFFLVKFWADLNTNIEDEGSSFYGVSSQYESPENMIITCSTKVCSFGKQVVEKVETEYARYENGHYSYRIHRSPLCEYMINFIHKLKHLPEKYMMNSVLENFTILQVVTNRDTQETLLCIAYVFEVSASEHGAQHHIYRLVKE

With `C[C@H](O)COc1ccc(C(N)=O)c(-c2c(Cl)c(F)cc3c2[C@H](C)[C@@](CN[C@H]2CC[C@@](C)(O)CC2)(c2ccccc2)O3)c1F` (atropisomer, axis not shown) [Example 114b, 2-((2S,3S,4S)-5-chloro-6-fluoro-2-((((cis)-4-hydroxy-4-methylcyclohexyl)amino)methyl)-3-methyl-2-phenyl-2,3-dihydrobenzofuran-4-yl)-3-fluoro-4-((S)-2-hydroxypropoxy)benzamide], the GI50 in the test with MKN-45/Ubc-luc cells [1] is above 10000 nM; in test [2], 34 nM. Further, the values for the IC50 (in test [3]; with MKN-45/Ubc-luc cells [4]; in test [5]) were 23 nM, above 10 µM and 2 nM, respectively.
For the compound `C[C@H]1c2c(cc(F)c(Cl)c2-c2c(C(N)=O)ccc(OCCO)c2F)O[C@]1(CN[C@H]1CC[C@](C)(O)CC1)c1ccccc1` (atropisomer, axis not shown) [Example 117a, 2-((2S,3S,4S)-5-chloro-6-fluoro-2-((((trans)-4-hydroxy-4-methylcyclohexyl)amino)methyl)-3-methyl-2-phenyl-2,3-dihydrobenzofuran-4-yl)-3-fluoro-4-(2-hydroxyethoxy)benzamide], the GI50 with MKN-45/Ubc-luc cells [1] was above 10000 nM; in test [2], 14 nM. Further, the IC50 in test [3] is 15 nM; with MKN-45/Ubc-luc cells [4], above 10 µM; in test [5], below 1 nM.
Take `C[C@H]1c2c(cc(F)c(Cl)c2-c2c(C(N)=O)ccc(OCCO)c2F)O[C@]1(CN[C@H]1CC[C@@](C)(O)CC1)c1ccccc1` (atropisomer, axis not shown) [Example 117b, 2-((2S,3S,4S)-5-chloro-6-fluoro-2-((((cis)-4-hydroxy-4-methylcyclohexyl)amino)methyl)-3-methyl-2-phenyl-2,3-dihydrobenzofuran-4-yl)-3-fluoro-4-(2-hydroxyethoxy)benzamide]: the results for the concentration for 50% growth inhibition (GI50) (in the test on MKN-45/Ubc-luc cells [1]; in test [2]) were above 10000 nM and 30 nM, respectively. Moreover, the IC50 in test [3] is 16 nM; in the test on MKN-45/Ubc-luc cells [4] it was above 10 µM; in test [5] it was 1 nM.
On to `C[C@H]1c2c(cc(F)c(Cl)c2-c2c(C(N)=O)ccc(OCCO)c2F)O[C@]1(CNC1CCC1)c1ccccc1` (atropisomer, axis not shown) [Example 118, 2-((2S,3S,4S)-5-chloro-2-((cyclobutylamino)methyl)-6-fluoro-3-methyl-2-phenyl-2,3-dihydrobenzofuran-4-yl)-3-fluoro-4-(2-hydroxyethoxy)benzamide], for which the 50% growth inhibitory concentration (GI50) was above 5500 nM in the test with MKN-45/Ubc-luc cells [1] and 15 nM in test [2]. For the same compound, the IC50 was 10 nM in test [3], above 5.5 µM in the test with MKN-45/Ubc-luc cells [4] and 1 nM in test [5].
In the case of `C[C@H]1c2c(cc(F)c(Cl)c2-c2c(C(N)=O)cnc(OCCO)c2F)O[C@]1(CN[C@H]1CC[C@](C)(O)CC1)c1ccccc1` (atropisomer, axis not shown) [Example 119], the GI50 was above 10000 nM in the test on MKN-45/Ubc-luc cells [1] and 28 nM in test [2]. Moreover, the figures for the IC50 (in test [3]; in the test with MKN-45/Ubc-luc cells [4]; in test [5]) were 22 nM, above 10 µM and 2 nM, respectively.
Turning to `C[C@H](O)COc1ccc(C#N)c(-c2c(Cl)c(F)cc3c2[C@H](C)[C@@](CN[C@H]2CC[C@](C)(O)CC2)(c2ccccc2)O3)c1F` (atropisomer, axis not shown) [Example 120, 2-((2S,3S,4S)-5-Chloro-6-fluoro-2-((((trans)-4-hydroxy-4-methylcyclohexyl)amino)methyl)-3-methyl-2-phenyl-2,3-dihydrobenzofuran-4-yl)-3-fluoro-4-((S)-2-hydroxypropoxy)benzonitrile], the GI50 in the test on MKN-45/Ubc-luc cells [1] is above 10000 nM; in test [2] it was 22 nM. In addition, the IC50 is 20 nM in test [3], above 10 µM in the test with MKN-45/Ubc-luc cells [4] and 3 nM in test [5].
`CNC(=O)c1ccc(OCCO)c(F)c1-c1c(Cl)c(F)cc2c1[C@H](C)[C@@](CN[C@H]1CC[C@](C)(O)CC1)(c1ccccc1)O2` (atropisomer, axis not shown) [Example 121, 2-((2S,3S,4S)-5-Chloro-6-fluoro-2-((((trans)-4-hydroxy-4-methylcyclohexyl)amino)methyl)-3-methyl-2-phenyl-2,3-dihydrobenzofuran-4-yl)-3-fluoro-4-(2-hydroxyethoxy)-N-methylbenzamide]: the GI50 in the test with MKN-45/Ubc-luc cells [1] was above 10000 nM; in test [2], 36 nM. The IC50 in test [3] was 20 nM; in the test on MKN-45/Ubc-luc cells [4] it was above 10 µM; in test [5] it was 2 nM.
Turning to `CNC[C@]1(c2ccccc2)Oc2cc(F)c(Cl)c(-c3c(C(=O)NC)ccc(OC[C@H](C)O)c3F)c2[C@@H]1C` (atropisomer, axis not shown) [Example 122, 2-((2S,3S,4S)-5-Chloro-6-fluoro-3-methyl-2-((methylamino)methyl)-2-phenyl-2,3-dihydrobenzofuran-4-yl)-3-fluoro-4-((S)-2-hydroxypropoxy)-N-methylbenzamide], the values for the GI50 (in the test with MKN-45/Ubc-luc cells [1]; in test [2]) were above 10000 nM and 59 nM, respectively. In addition, the values for the IC50 (in test [3]; with MKN-45/Ubc-luc cells [4]; in test [5]) were 85 nM, above 10 µM and 6 nM, respectively.
For the compound `C[C@H](O)COc1ccc(C(N)=O)c(-c2c(Cl)c(F)cc3c2[C@H](C)[C@@](CN)(c2ccccc2)O3)c1F` (atropisomer, axis not shown) [Example 123, 2-((2S,3S,4S)-2-(Aminomethyl)-5-chloro-6-fluoro-3-methyl-2-phenyl-2,3-dihydrobenzofuran-4-yl)-3-fluoro-4-((S)-2-hydroxypropoxy)benzamide], the figures for the GI50 (in the test with MKN-45/Ubc-luc cells [1]; in test [2]) were above 10000 nM and 44 nM, respectively. In addition, the IC50 was 25 nM in test [3], above 10 µM in the test with MKN-45/Ubc-luc cells [4] and 2 nM in test [5].
The matching figures for `C[C@H]1c2c(cc(F)c(Cl)c2-c2c(OCCO)ccc(F)c2F)O[C@]1(CN)c1ccccc1` (atropisomer, axis not shown) [Example 124, 2-(2-((2S,3S,4S)-2-(Aminomethyl)-5-chloro-6-fluoro-3-methyl-2-phenyl-2,3-dihydrobenzofuran-4-yl)-3,4-difluorophenoxy)ethan-1-ol]: above 10000 nM, 1070 nM, 1230 nM, above 10 µM and 11 nM.
The matching figures for `CNC[C@]1(c2cccc(O)n2)Oc2cc(F)c(Cl)c(-c3c(C(N)=O)ccc(OC)c3F)c2[C@@H]1C` (atropisomer, axis not shown) [Example 125, 2-((2R,3S,4S)-5-Chloro-6-fluoro-2-(6-hydroxypyridin-2-yl)-3-methyl-2-((methylamino)methyl)-2,3-dihydrobenzofuran-4-yl)-3-fluoro-4-methoxybenzamide]: above 7500 nM, 1180 nM, 671 nM, above 10 µM and 11 nM.
As to `COCCOc1ccc(C(N)=O)c(-c2c(Cl)c(F)cc3c2[C@H](C)[C@@](CN[C@H]2CC[C@](C)(O)CC2)(c2ccccn2)O3)c1F` (atropisomer, axis not shown) [Example 126, 2-((2R,3S,4S)-5-Chloro-6-fluoro-2-((((trans)-4-hydroxy-4-methylcyclohexyl)amino)methyl)-3-methyl-2-(pyridin-2-yl)-2,3-dihydrobenzofuran-4-yl)-3-fluoro-4-(2-methoxyethoxy)benzamide], the 50% growth inhibitory concentration (GI50) with MKN-45/Ubc-luc cells [1] was above 10000 nM; in test [2] it was 76 nM. Further, the values for the IC50 (in test [3]; with MKN-45/Ubc-luc cells [4]; in test [5]) were 45 nM, above 10 µM and 2 nM, respectively.
As to `COc1ccc(C(N)=O)c(-c2c(Cl)c(F)cc3c2[C@H](C)[C@@](CN[C@H]2CC[C@](C)(O)CC2)(c2cccnc2)O3)c1F` (atropisomer, axis not shown) [Example 127, 2-((2S,3S,4S)-5-Chloro-6-fluoro-2-((((trans)-4-hydroxy-4-methylcyclohexyl)amino)methyl)-3-methyl-2-(pyridin-3-yl)-2,3-dihydrobenzofuran-4-yl)-3-fluoro-4-methoxybenzamide], the GI50 in the test with MKN-45/Ubc-luc cells [1] was above 10000 nM; in test [2] it was 141 nM. In addition, the IC50 in test [3] was 65 nM; in the test with MKN-45/Ubc-luc cells [4], above 10 µM; in test [5], 6 nM.
For the compound `COc1ccc(C(N)=O)c(-c2c(C(F)(F)F)ccc3c2C[C@@](CN)(c2ccccc2)O3)c1` (atropisomer, axis not shown) [Example 128, 2-((2S,4R)-2-(Aminomethyl)-2-phenyl-5-(trifluoromethyl)-2,3-dihydrobenzofuran-4-yl)-4-methoxybenzamide], the GI50 with MKN-45/Ubc-luc cells [1] is above 10000 nM; in test [2], 7050 nM. In addition, the IC50 in test [3] is 5720 nM; with MKN-45/Ubc-luc cells [4] it was above 10 µM; in test [5] it was 176 nM.
The matching figures for `CNC(=O)c1ccc(OC)c(F)c1-c1c(C#N)ccc2c1C[C@@](CN[C@H]1CC[C@](C)(O)CC1)(c1ccccc1)O2` (atropisomer, axis not shown) [Example 129, 2-((2S,4R)-5-Cyano-2-((((trans)-4-hydroxy-4-methylcyclohexyl)amino)methyl)-2-phenyl-2,3-dihydrobenzofuran-4-yl)-3-fluoro-4-methoxy-N-methylbenzamide]: above 10000 nM, 892 nM, 615 nM, above 10 µM and 25 nM.

Broadly, the GI50 is the concentration giving 50% growth inhibition.
